Assay results taken from patent publication US11279733B2, “Peptide antibiotics” (priority 2017, dated 2022).
Converted amounts (≈) assume the structure as drawn. Read-outs that look alike come from different tables or passages of the source. Positions of bridges follow the written chain, without caps; N, C: chain ends. Non-standard residues stand in square brackets, D forms with d. Residues, ends and D or L forms follow the SMILES beside them. *: point of attachment. Decanoyl(3R-OH) = CCCCCCC[C@@H](O)CC(=O)*; d(hPhe) = N[C@H](CCc1ccccc1)C(=O)O; Ala(cPr) = N[C@@H](CC1CC1)C(=O)O; Decanoyl = CCCCCCCCCC(=O)*; dDab = NCC[C@@H](N)C(=O)O; dDap = NC[C@@H](N)C(=O)O; Dab = NCC[C@H](N)C(=O)O

Key:
in vitro = conditions: human
Method in brief: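 4000 cells/well, 24 h attach (37 °C, 5% CO2); compound 24 h; 5 μM resazurin 2 h, 37 °C; fluorescence ex/em 560/590. CC50 by curve fit.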

[1] = test system: K. pneumoniae ATCC BAA-2146, NDM-1 pos; conditions: ATCC BAA-2146
Method in brief: (§1)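 Mid-log cultures grown in Mueller Hinton broth at 37° C were tested by 2-fold broth microdilution at 5×10^5 CFU/mL final. Compounds were dissolved in water and tested over a final range of 32 to 0.015 μg/mL.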

A. baumannii ATCC 19606 = conditions: ATCC 19606
Method in brief: as §1

[2] = test system: P. aeruginosa GN_105, PmxR; conditions: GN 105, PmxR
Method in brief: as §1

[3] = test system: K. pneumoniae GN_102 PmxR; conditions: GN 102 PmxR
Method in brief: as §1

K. pneumoniae ATCC 13883 = conditions: ATCC 13883
Method in brief: as §1

A. baumannii GN_093 PmxR = conditions: GN 093 PmxR
Method in brief: as §1

[4] = test system: K. pneumoniae ATCC 700603, MDR; conditions: ATCC 700603
Method in brief: as §1

E. coli ATCC 25922 = conditions: ATCC 25922
Method in brief: as §1

P. aeruginosa ATCC 27853 = conditions: ATCC 27853
Method in brief: as §1

[5] = test system: S. aureus ATCC 25923, MSSA; conditions: ATCC 25923
Method in brief: as §1

[6] = test system: K. pneumoniae GN_106, PmxR; conditions: GN 106, PmxR
Method in brief: as §1

[7] = test system: P. aeruginosa GN_043, PmxR
Method in brief: as §1

In the case of `CCCCCCC[C@@H](O)CC(=O)N[C@H](CCN)C(=O)N[C@H]1CCNC(=O)[C@H](Cc2c[nH]c3ccccc23)NC(=O)[C@H](CCN)NC(=O)[C@H](CCN)NC(=O)[C@H](CC2CC2)NC(=O)[C@@H](Cc2ccccc2)NC(=O)[C@H](CCN)NC1=O` [compound 8099, 3(R)OH-nC9CO-D-Dab-cyc[L-Dab-L-Dab-D-Phe-L-Ala(cycloprop)-L-Dab-L-Dab-L-Trp]] ({Decanoyl(3R-OH)}-[dDab][Dab][Dab][dF][Ala(cPr)][Dab][Dab]W; lactam 2-C), the CC50 at 24 h (in vitro) is reported as 73 µM, the “MIC K. pneumoniae ATCC BAA-2146, NDM-1 pos” value [1] is reported as 4 µg/mL (≈ 3.59 µM) and the “MIC A. baumannii ATCC 19606” value (A. baumannii ATCC 19606) is reported as 8 µg/mL (≈ 7.17 µM). The “MIC P. aeruginosa GN_105, PmxR” value [2] was over 32 µg/mL, the “MIC K. pneumoniae GN_102 PmxR” value [3] was 4 µg/mL (≈ 3.59 µM) and the “MIC K. pneumoniae ATCC 13883” value (K. pneumoniae ATCC 13883) was 8 µg/mL (≈ 7.17 µM). The “MIC A. baumannii GN_093 PmxR” value (A. baumannii GN_093 PmxR) was 16 µg/mL (≈ 14.3 µM), the “MIC K. pneumoniae ATCC 700603, MDR” value [4] was 8 µg/mL (≈ 7.17 µM) and the “MIC E. coli ATCC 25922” value (E. coli ATCC 25922) was 8 µg/mL (≈ 7.17 µM). For the same molecule, the “MIC P. aeruginosa ATCC 27853” value (P. aeruginosa ATCC 27853) was 2 µg/mL (≈ 1.79 µM), the “MIC S. aureus ATCC 25923, MSSA” value [5] was 16 µg/mL (≈ 14.3 µM) and the “MIC K. pneumoniae GN_106, PmxR” value [6] was 4 µg/mL (≈ 3.59 µM). The “MIC P. aeruginosa GN_043, PmxR” value ([7]; polymyxin-resistant) was 2 µg/mL (≈ 1.79 µM).

In the case of `CCCCCCC[C@@H](O)CC(=O)N[C@H](CCN)C(=O)N[C@H]1CCNC(=O)[C@H](Cc2c[nH]c3ccccc23)NC(=O)[C@H](CCN)NC(=O)[C@H](CCN)NC(=O)[C@H](CC(C)C)NC(=O)[C@@H](CCc2ccccc2)NC(=O)[C@H](CCN)NC1=O` [compound 8129, 3(R)OH-nC9CO-D-Dab-cyc[L-Dab-L-Dab-L-Dab-D-hPhe-L-Leu-L-Dab-L-Dab-L-Trp]] ({Decanoyl(3R-OH)}-[dDab][Dab][Dab][d(hPhe)]L[Dab][Dab]W; lactam 2-C), the CC50 at 24 h (in vitro) is reported as 37 µM, the “MIC K. pneumoniae ATCC BAA-2146, NDM-1 pos” value [1] is reported as 4 µg/mL (≈ 3.54 µM) and the “MIC A. baumannii ATCC 19606” value (A. baumannii ATCC 19606) is reported as 4 µg/mL (≈ 3.54 µM). For the same molecule, the “MIC P. aeruginosa GN_105, PmxR” value [2] was 2 µg/mL (≈ 1.77 µM), the “MIC K. pneumoniae GN_102 PmxR” value [3] was 4 µg/mL (≈ 3.54 µM) and the “MIC K. pneumoniae ATCC 13883” value (K. pneumoniae ATCC 13883) was 4 µg/mL (≈ 3.54 µM). The “MIC A. baumannii GN_093 PmxR” value (A. baumannii GN_093 PmxR) was 4 µg/mL (≈ 3.54 µM), the “MIC K. pneumoniae ATCC 700603, MDR” value [4] was 4 µg/mL (≈ 3.54 µM) and the “MIC E. coli ATCC 25922” value (E. coli ATCC 25922) was 2 µg/mL (≈ 1.77 µM). The “MIC P. aeruginosa ATCC 27853” value (P. aeruginosa ATCC 27853) was 2 µg/mL (≈ 1.77 µM), the “MIC S. aureus ATCC 25923, MSSA” value [5] was 2 µg/mL (≈ 1.77 µM) and the “MIC K. pneumoniae GN_106, PmxR” value [6] was 4 µg/mL (≈ 3.54 µM). For the same molecule, the “MIC P. aeruginosa GN_043, PmxR” value ([7]; polymyxin-resistant) was 4 µg/mL (≈ 3.54 µM).

In the case of `CCCCCCC[C@@H](O)CC(=O)N[C@H](CC(N)=O)C(=O)N[C@H]1CCNC(=O)[C@H](CC(C)C)NC(=O)[C@H](CCN)NC(=O)[C@H](CCN)NC(=O)[C@H](Cc2ccccc2)NC(=O)[C@@H](CC(C)C)NC(=O)[C@H](CCN)NC1=O` [compound 6432, 3(R)OH-nC9CO-D-Asn-cyc[L-Dab-L-Dab-D-Leu-L-Phe-L-Dab-L-Dab-L-Leu]] ({Decanoyl(3R-OH)}-[dN][Dab][Dab][dL]F[Dab][Dab]L; lactam 2-C), the CC50 at 24 h (in vitro) is reported as over 300 µM, the “MIC K. pneumoniae ATCC BAA-2146, NDM-1 pos” value [1] is reported as 16 µg/mL (≈ 15.1 µM) and the “MIC A. baumannii ATCC 19606” value (A. baumannii ATCC 19606) is reported as 32 µg/mL (≈ 30.2 µM). For the same molecule, the “MIC P. aeruginosa GN_105, PmxR” value [2] was 8 µg/mL (≈ 7.56 µM), the “MIC K. pneumoniae GN_102 PmxR” value [3] was 4 µg/mL (≈ 3.78 µM) and the “MIC K. pneumoniae ATCC 13883” value (K. pneumoniae ATCC 13883) was 16 µg/mL (≈ 15.1 µM). For the same molecule, the “MIC A. baumannii GN_093 PmxR” value (A. baumannii GN_093 PmxR) was over 32 µg/mL, the “MIC K. pneumoniae ATCC 700603, MDR” value [4] was 16 µg/mL (≈ 15.1 µM) and the “MIC E. coli ATCC 25922” value (E. coli ATCC 25922) was 16 µg/mL (≈ 15.1 µM). The “MIC P. aeruginosa ATCC 27853” value (P. aeruginosa ATCC 27853) was 16 µg/mL (≈ 15.1 µM), the “MIC S. aureus ATCC 25923, MSSA” value [5] was over 32 µg/mL and the “MIC K. pneumoniae GN_106, PmxR” value [6] was 4 µg/mL (≈ 3.78 µM). The “MIC P. aeruginosa GN_043, PmxR” value ([7]; P. aeruginosa GN_043, PmxR) was 4 µg/mL (≈ 3.78 µM).

In the case of `CCCCCCCCCC(=O)N[C@H](CN)C(=O)N[C@H]1CCNC(=O)[C@H](CC(C)C)NC(=O)[C@H](CCN)NC(=O)[C@H](CCN)NC(=O)[C@H](CC(C)C)NC(=O)[C@@H](Cc2ccccc2)NC(=O)[C@H](CCN)NC1=O` [compound 9192, nC9CO-D-Dap-cyc[L-Dab-L-Dab-D-Phe-L-Leu-L-Dab-L-Dab-L-Leu]] (Decanoyl-[dDap][Dab][Dab][dF]L[Dab][Dab]L; lactam 2-C), the CC50 at 24 h (in vitro) is reported as 224 µM, the “MIC K. pneumoniae ATCC BAA-2146, NDM-1 pos” value [1] is reported as 8 µg/mL (≈ 7.89 µM) and the “MIC A. baumannii ATCC 19606” value (A. baumannii ATCC 19606) is reported as 32 µg/mL (≈ 31.5 µM). For the same molecule, the “MIC P. aeruginosa GN_105, PmxR” value [2] was 2 µg/mL (≈ 1.97 µM), the “MIC K. pneumoniae GN_102 PmxR” value [3] was 8 µg/mL (≈ 7.89 µM) and the “MIC K. pneumoniae ATCC 13883” value (K. pneumoniae ATCC 13883) was 8 µg/mL (≈ 7.89 µM). The “MIC A. baumannii GN_093 PmxR” value (A. baumannii GN_093 PmxR) was 4 µg/mL (≈ 3.94 µM), the “MIC K. pneumoniae ATCC 700603, MDR” value [4] was 8 µg/mL (≈ 7.89 µM) and the “MIC E. coli ATCC 25922” value (E. coli ATCC 25922) was 2 µg/mL (≈ 1.97 µM). The “MIC P. aeruginosa ATCC 27853” value (P. aeruginosa ATCC 27853) was 4 µg/mL (≈ 3.94 µM), the “MIC S. aureus ATCC 25923, MSSA” value [5] was 8 µg/mL (≈ 7.89 µM) and the “MIC K. pneumoniae GN_106, PmxR” value [6] was 8 µg/mL (≈ 7.89 µM). The “MIC P. aeruginosa GN_043, PmxR” value ([7]; P. aeruginosa GN_043, PmxR) was 4 µg/mL (≈ 3.94 µM).
